This is an account of results in patent publication US20170049678A1, “COMBINATION OF A HYALURONIC ACID AND OF A SULPHATED POLYSACCHARIDE” (PIERRE FABRE DERMO-COSMETIQUE, priority 2014, published 2017).

This assay deals with Normal human fibroblasts (NHF). In words: Fibroblast proliferation by BrdU incorporation. To be noted: single agent; Ascophyscient 10 and 100 μg/ml, sodium hyaluronate 100 and 1000 μg/ml; 44 hours, DMEM with 3% FCS; FIG. 2. Format: cell-based. How it is done: The technique used is that of incorporation of a nucleotide, 5-bromo-2′-deoxyuridine (BrdU), a thymidine analog, in the DNA of S-phase cells, at 37° C. This technique makes it possible to quantify cells of which the advance in the cell cycle is characteristic of a proliferating cell (S-phase or DNA synthesis phase). Normal human fibroblasts (NHF), isolated from surgical waste skin, are usually cultivated in Dulbecco's modified Eagle's medium (DMEM) with 10% fetal calf serum (FCS). In our experimental conditions, dilutions of the products to be tested are prepared in DMEM with 3% FCS. The cells are first deprived of FCS for 24 hours to stop cell multiplication before incubating them in the presence of the molecules to be evaluated for 44 hours at 37° C., in a 5% CO2 atmosphere. BrdU incorporation, proportional to cell proliferation rate, is evaluated by an anti-BrdU antibody system (Roche Applied Science). The corresponding absorbance (OD) is measured at 450 nm. This datum is thus proportional to cell proliferation rate. […] Analysis of the Results: • expressed as OD (proportional to BrdU incorporation and thus to cell proliferation rate) • expressed as percent stimulation: [formula] • expressed as standard error of the mean: SEM=standard deviation (SD)/√n Statistical analyses using unpaired bilateral Student's t-test were carried out on the raw OD values. […]
A general note: Incorporation of labelled thymidine or its analogues reports DNA synthesis.

Take sodium hyaluronate: the “fibroblast proliferation (BrdU incorporation, OD 450 nm)” value is recorded as “moderate effect on fibroblast proliferation”.
